The values below come from US20190216956A1, “COMPOSITIONS FOR RADIOTHERAPY AND USES THEREOF” (priority 2016, published 2019).

For data set [1], the system named is NCI-2052H cells. Put plainly: Cytotoxicity assay (MTS) of NCI-2052H cells: bleomycin, mitomycin, doxorubicin, paclitaxel, talc, talc bound to drugs (Example 23). The class given is cell-based. The following applies: for Average readings: cells + drug, bleomycin / Average reading: cells + drug, mitomycin: absorbance 490 nm.
In data set [2] the test system is NCI-28H cells. The data set can be described thus: Cytotoxicity assay (MTS) of NCI-28H cells treated with bleomycin, talc, talc bound to bleomycin (Example 16). The class given is cell-based. The following applies: 72 hrs. The method, then: Read absorbance (MTS assay) and calculate cells survival rate.
1. […] 500,000 cells/670,000=0.75 ml of cells/media mix need to take from flask and transfer to 9.25 ml media. […] Gently mix.
1. Bring back tubes from cold room to laboratory. Centrifuge 3200 rpm for 3 min. Take out supernatant.
3. Wash cells 2×300 μL DPBS, remove final wash.
6. Incubate plate 1 hr at 37° C., 5% CO2.

Data set [3] can be described thus: Talc bound to HRP- and cold-Avidin, 48 hours in PBS containing 10% FBS (Example 14). It is filed as physicochemical. The procedure:
Purpose: To check how strong the conjugate of hot/cold Avidin to Talc is. […] Absorbance will be checked twice—once before washing with PBS containing 10% FBS and after 48 hours, washing will be done.
6. Weigh 8 mg of Avidin (cold Avidin), then resuspend it in 2 mL of PBS containing 40 ng/mL of “hot” Avidin. So the solution will now be 40 ng/mL hot Avidin+4 mg/mL of Cold Avidin. Label this tube as #1.
14. […] Two identical microplates need to be set up, labeling them as: plate #1 and plate #2. Design of the plate:
3. Wash both plates 3× with 300 μL PBS.
5. […] Mix constantly, cover plate with Aluminum foil.
6. Add 100 μL of TMB to samples in plate #1.
9. Read absorbance at 450 nm using the plate reader.
3. Collect 100 μL supernatant from samples except native controls and load on same plate.
4. Wash plate except supernatant samples 3× with 300 μL PBS.
6. Add 100 μL of TMB to all samples in plate#2.

The subject of data set [4] is NCI-28H cells. The data set can be described thus: Cytotoxicity assay (MTS) of NCI-28H cells: carboplatin, mitomycin, gemcitabine, talc, talc bound to drugs (Example 22). The conditions noted are these: NCI-28H cells; for Average absorbance readings: cells + drug, mitomycin: 490 nm. The method, then:
Read absorbance (MTS assay) and calculate cells survive rate. Compare survival rate
1. Set up 3 cytotoxicity plates for tomorrow experiment: trypsinize NCI-28H cells (T-75 flask, passage 12): • Remove old medium, wash cells with 7 ml DPBS, remove DPBS, add 2 ml trypsin, incubate plates for 1-2′, when cells detached add 6 ml fresh medium, mix cells and medium. • Count cells under the microscope using the glass slide. […] If we need 200 wells, in each well will be 5,000 cells in 0.1 ml; so total we need 1,000,000 cells in 20 ml.
2. […] Final solution is 500 μL of 500 μM carboplatin.
4. […] Final solution is 500 μL of 200 μM Gemcitabine.
(§1) 1. Centrifuge tubes at 3200 rpm for 3 min. Take out supernatant.
3. Add 100 μL of each 8 preparations of diluted carboplatin (step 1 and 2) to the proper wells according to a plate layout.
4. Add 100 μL of each 8 preparations of diluted Gemcitabine (step 1, 2, 3) to the proper wells according to a plate layout.
6. Check the plate and start incubation at 37° C./5% CO2.
3. Wash all cells 1×300 μL DPBS, remove final wash.

In data set [5] the test system is NCI-2052H cells. Put plainly: Repeated cytotoxicity experiment (MTS): NCI-2052H cells, mitomycin, talc, talc bound to mitomycin (Example 24). The class given is cell-based. The following applies: for Average reading: drug + cells: absorbance 490 nm. The method, then: Compare survival rate of cells.
1. […] Protocol how to do that see in previous cytotoxicity experiment.
as §1
1. Incubate plate for 72 hrs at 37° C., 5% CO2.
3. Wash all wells 1×300 μL DPBS, remove final wash.

Counter-ions that a name gives are not always drawn.

For the compound `Cc1c(N)nc([C@H](CC(N)=O)NC[C@H](N)C(N)=O)nc1C(=O)N[C@H](C(=O)N[C@H](C)[C@@H](O)[C@H](C)C(=O)N[C@H](C(=O)NCCc1nc(-c2nc(C(=O)NCCC[S+](C)C)cs2)cs1)[C@@H](C)O)[C@@H](O[C@@H]1OC(CO)[C@@H](O)C(O)C1O[C@H]1OC(CO)[C@@H](O)C(OC(N)=O)C1O)c1c[nH]cn1` (stereo partly drawn) [Bleomycin, Bleomycin sulfate Streptomyces verticillus], the “% survival from untreated cells” value in data set [1] (Bleomycin 0.24 ug/ml) is reported as 101.64%; in data set [1] (Bleomycin 0.97 ug/ml), 97.34%; in data set [1] (Bleomycin 3.9 ug/ml), 88.64%; in data set [1] (Bleomycin 15.6 ug/ml) it was 51.72%; in data set [1] (Bleomycin 62.5 ug/ml) it was 38.34%; in data set [1] (Bleomycin 250 ug/ml) it was 20.89%. Besides, the “% survival from untreated cells” value in data set [1] (Bleomycin 1000 ug/ml) worked out at 14.62%. Besides, the “Average readings: cells + drug, bleomycin” value in data set [1] (bleomycin 0.24 μg/ml) is 1.3454; in data set [1] (bleomycin 0.97 μg/ml), 1.2884; in data set [1] (bleomycin 3.9 μg/ml), 1.1733; in data set [1] (bleomycin 15.6 μg/ml) it was 0.6846; in data set [1] (bleomycin 62.5 μg/ml) it was 0.5075; in data set [1] (bleomycin 250 μg/ml) it was 0.2766. Besides, the “Average readings: cells + drug, bleomycin” value in data set [1] (bleomycin 1000 μg/ml) worked out at 0.1935. For the same compound, the “% survival NCI-28H cells after treatment with BLEOMYCIN” value is reported as 92.41% in data set [2] (0.004 ug/ml); 88.25% in data set [2] (0.015 ug/ml); 93.38% in data set [2] (0.06 ug/ml); 91.86% in data set [2] (0.24 ug/ml); 86.19% in data set [2] (0.97 ug/ml); 71.05% in data set [2] (3.9 ug/ml). In addition, the “% survival NCI-28H cells after treatment with BLEOMYCIN” value in data set [2] (15.6 ug/ml) stood at 74.60%; in data set [2] (62.5 ug/ml), 68.76%; in data set [2] (250 ug/ml), 47.13%; in data set [2] (1000 ug/ml), 24.92%.
“Avidin: Avidin from egg white (Sigma); 60,000 m.w. egg-white protein that binds biotin”: in data set [3], the “stability of binding of Avidin to talc” value is “unchanged at 48 hours”.
For `CO[C@@]12[C@H](COC(N)=O)C3=C(C(=O)C(C)=C(N)C3=O)N1C[C@@H]1N[C@@H]12` [mitomycin], the “Average reading: cells + drug, mitomycin” value in data set [1] (mitomycin 0.013 μM) turned out to be 1.284; in data set [1] (mitomycin 0.064 μM), 1.199; in data set [1] (mitomycin 8 μM), 0.4142; in data set [1] (mitomycin 40 μM), 0.2305; in data set [1] (mitomycin 200 μM), 0.2098; in data set [1] (mitomycin .0026 μM), 1.424. Also, the “Average absorbance readings: cells + drug, mitomycin” value in data set [4] (mitomycin 0.0026 μM) stood at 2.032; in data set [4] (mitomycin 0.013 μM), 1.965; in data set [4] (mitomycin 0.064 μM), 1.8766; in data set [4] (mitomycin 8 μM) it was 0.3451; in data set [4] (mitomycin 40 μM) it was 0.52; in data set [4] (mitomycin 200 μM), 0.2464. The “% survival cells after exposure to drug for 72 hrs (cells + drug only), mitomycin” value in data set [4] (mitomycin 0.0026 μM) worked out at 106.12%; in data set [4] (mitomycin 0.013 μM), 102.65%; in data set [4] (mitomycin 0.064 μM), 98.03%; in data set [4] (mitomycin 8 μM), 18.03%; in data set [4] (mitomycin 40 μM), 27.16%; in data set [4] (mitomycin 200 μM), 12.87%. Besides, the “Average reading: drug + cells” value in data set [5] (Mitomycin 0.013 uM) amounted to 0.7907; in data set [5] (Mitomycin 0.064 uM), 0.8267; in data set [5] (Mitomycin 8 uM) it was 0.4217; in data set [5] (Mitomycin 40 uM), 0.2257; in data set [5] (Mitomycin 200 uM), 0.2243; in data set [5] (Mitomycin .0026 uM), 0.8637. Also, the “% survival from untreated cells” value in data set [5] (mitomycin 0.0026 (uM per Table 103)) is reported as 78.87%; in data set [5] (mitomycin 0.013 (uM per Table 103)), 72.21%; in data set [5] (mitomycin 0.064 (uM per Table 103)) it was 75.49%; in data set [5] (mitomycin 0.32 (uM per Table 103)), 75.10%; in data set [5] (mitomycin 1.6 (uM per Table 103)), 61.83%; in data set [5] (mitomycin 8 (uM per Table 103)), 38.51%. Moreover, the “% survival from untreated cells” value worked out at 20.61% in data set [5] (mitomycin 40 (uM per Table 103)) and 20.49% in data set [5] (mitomycin 200 (uM per Table 103)).
